# Test results as given in patent US12344600B2, “c-Myc mRNA translation modulators and uses thereof in the treatment of cancer” (Anima Biotech Inc., priority 2022, dated 2025).
# Test system: c-Myc
# Experiment: c-Myc immunofluorescence assay
# Type: cell-based, human
# Details: A549 cells, 24 hours, anti-c-Myc immunofluorescence
# Summary of the method: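 Read-out is imaged c-Myc immunofluorescence, nucleus-segmented, in A549 lung carcinoma cells exposed to compound dose series for 24 h after 48 h growth. Fixation 4% paraformaldehyde, Triton permeabilization, antibody staining at room temperature; EC50 from logistic fit of signal versus concentration.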
row,Compound,Myc Efficacy (−LogEC50)
1,"COc1ccc(-c2noc(N3CCC(C(=O)NCC4CCN(Cc5ccc(C)cc5)C4)CC3)n2)cn1 (centres unmarked) [Compound 159, 1-(3-(6-methoxypyridin-3-yl)-1,2,4-oxadiazol-5-yl)-N-((1-(4-methylbenzyl)pyrrolidin-3-yl)methyl)piperidine-4-carboxamide]",+ (+ >3 and <5)
2,"COc1ccc(-c2noc(N3CCC(C(=O)Nc4cc(Cl)c(Cl)cn4)CC3)n2)cc1 [Compound 319, N-(4,5-dichloropyridin-2-yl)-1-(3-(4-methoxyphenyl)-1,2,4-oxadiazol-5-yl)piperidine-4-carboxamide]",+ (+ >3 and <5)
3,"COc1ccc(-c2noc([C@H]3CC[C@@H](C(=O)O)CC3)n2)cc1 [Compound 173, (1s,4s)-4-(3-(4-methoxyphenyl)-1,2,4-oxadiazol-5-yl)cyclohexane-1-carboxylic acid]",+ (+ >3 and <5)
4,"COc1ccc(-c2noc(N3CCC(C(=O)NCc4cccc(Cl)c4)CC3)n2)cc1 [Compound 122, N-(3-chlorobenzyl)-1-(3-(4-methoxyphenyl)-1,2,4-oxadiazol-5-yl)piperidine-4-carboxamide]",+ (+ >3 and <5)
5,"Cc1ccc(CN2CCC(CNC(=O)C3CCN(c4nc(-c5ccccc5C)no4)CC3)C2)cc1 (centres unmarked) [Compound 188, N-((1-(4-methylbenzyl)pyrrolidin-3-yl)methyl)-1-(3-(o-tolyl)-1,2,4-oxadiazol-5-yl)piperidine-4-carboxamide]",++ (++ ≥5 and <6)
6,"CNC(=O)C1CCN(c2nc(-c3ccc(OC)cc3)no2)CC1 [Compound 137, 1-(3-(4-methoxyphenyl)-1,2,4-oxadiazol-5-yl)-N-methylpiperidine-4-carboxamide]",+ (+ >3 and <5)
7,"COCCCNC(=O)C1CCN(c2nc(-c3ccc(OC)cc3)no2)CC1 [Compound 112, 1-(3-(4-methoxyphenyl)-1,2,4-oxadiazol-5-yl)-N-(3-methoxypropyl)piperidine-4-carboxamide]",+ (+ >3 and <5)
8,"COc1ccc(-c2csc(N3CCC(C(=O)NCC4CCN(Cc5ccc(C)cc5)C4)CC3)n2)cc1 (centres unmarked) [Compound 160, 1-(4-(4-methoxyphenyl)thiazol-2-yl)-N-((1-(4-methylbenzyl)pyrrolidin-3-yl)methyl)piperidine-4-carboxamide]",++ (++ ≥5 and <6)
9,"COc1ccc(-c2noc(N3CCC(C(=O)NCC4CCN(C5CCOCC5)C4)CC3)n2)cc1 (centres unmarked) [Compound 398, 1-(3-(4-methoxyphenyl)-1,2,4-oxadiazol-5-yl)-N-((1-(tetrahydro-2H-pyran-4-yl)pyrrolidin-3-yl)methyl)piperidine-4-carboxamide]",+ (+ >3 and <5)
10,"COc1ccc(-c2noc(N3CCC(C(=O)NCC4CCN(Cc5ccc(C)o5)C4)CC3)n2)cc1 (centres unmarked) [Compound 379, 1-(3-(4-methoxyphenyl)-1,2,4-oxadiazol-5-yl)-N-((1-((5-methylfuran-2-yl)methyl)pyrrolidin-3-yl)methyl)piperidine-4-carboxamide]",++ (++ ≥5 and <6)
11,"COc1ccc(-c2noc(N3CCC(C(=O)NCC4CCN(Cc5ccc[nH]5)C4)CC3)n2)cc1 (centres unmarked) [Compound 389, N-((1-((1H-pyrrol-2-yl)methyl)pyrrolidin-3-yl)methyl)-1-(3-(4-methoxyphenyl)-1,2,4-oxadiazol-5-yl)piperidine-4-carboxamide]",++ (++ ≥5 and <6)
12,"COc1ccc(-c2noc(N3CCC(C(=O)NCC4CCN(C[C@H]5CCCN(C)C5)C4)CC3)n2)cc1 (stereo partly drawn) [Compound 422, 1-(3-(4-methoxyphenyl)-1,2,4-oxadiazol-5-yl)-N-((1-(((S)-1-methylpiperidin-3-yl)methyl)pyrrolidin-3-yl)methyl)piperidine-4-carboxamide]",++ (++ ≥5 and <6)
13,"O=C(NCc1cccnc1)C1CCN(c2nc(-c3ccc(Cl)cc3)no2)CC1 [Compound 163, 1-(3-(4-chlorophenyl)-1,2,4-oxadiazol-5-yl)-N-(pyridin-3-ylmethyl)piperidine-4-carboxamide]",+ (+ >3 and <5)
14,"COc1ccc(-c2noc(N3CCC(C(=O)NCC4(N(C)C)CCCCC4)CC3)n2)cc1 [Compound 249, N-((1-(dimethylamino)cyclohexyl)methyl)-1-(3-(4-methoxyphenyl)-1,2,4-oxadiazol-5-yl)piperidine-4-carboxamide]",+ (+ >3 and <5)
15,"COc1ccc(-c2noc(N3CCC(C(=O)NC(C)Cc4c[nH]c5ccccc45)CC3)n2)cc1 (centres unmarked) [Compound 310, N-(1-(1H-indol-3-yl)propan-2-yl)-1-(3-(4-methoxyphenyl)-1,2,4-oxadiazol-5-yl)piperidine-4-carboxamide]",+ (+ >3 and <5)
16,"COc1ccc(-c2noc(N3CCC(C(=O)NCC4CCN(C[C@@H]5CCCN5)C4)CC3)n2)cc1 (stereo partly drawn) [Compound 392, 1-(3-(4-methoxyphenyl)-1,2,4-oxadiazol-5-yl)-N-((1-(((S)-pyrrolidin-2-yl)methyl)pyrrolidin-3-yl)methyl)piperidine-4-carboxamide]",+ (+ >3 and <5)

row,Compound,Myc Efficacy (−LogEC50)
1,"COc1ccc(-c2noc(N3CCC(C(=O)NC4CC5(C4)CN(C)C5)CC3)n2)cc1 [Compound 271, 1-(3-(4-methoxyphenyl)-1,2,4-oxadiazol-5-yl)-N-(2-methyl-2-azaspiro[3.3]heptan-6-yl)piperidine-4-carboxamide]",+ (+ >3 and <5)
2,"COc1ccc(-c2noc(N3CCN(C(=O)NCCCN4CCC(C)CC4)CC3)n2)cc1 [Compound 208, 4-(3-(4-methoxyphenyl)-1,2,4-oxadiazol-5-yl)-N-(3-(4-methylpiperidin-1-yl)propyl)piperazine-1-carboxamide]",++ (++ ≥5 and <6)
3,"COc1ccc(-c2noc(N3CCC(C(=O)NCC4CCN(C5COC5)C4)CC3)n2)cc1 (centres unmarked) [Compound 401, 1-(3-(4-methoxyphenyl)-1,2,4-oxadiazol-5-yl)-N-((1-(oxetan-3-yl)pyrrolidin-3-yl)methyl)piperidine-4-carboxamide]",+ (+ >3 and <5)
4,"COc1ccc(-c2noc(N3CCC(C(=O)Nc4ccc5c(c4)CCN5C)CC3)n2)cc1 [Compound 403, 1-(3-(4-methoxyphenyl)-1,2,4-oxadiazol-5-yl)-N-(1-methylindolin-5-yl)piperidine-4-carboxamide]",+ (+ >3 and <5)
5,"COc1ccc(-c2noc(N3CCC(C(=O)NCC4CCN(Cc5ccncc5)C4)CC3)n2)cc1 (centres unmarked) [Compound 322, 1-(3-(4-methoxyphenyl)-1,2,4-oxadiazol-5-yl)-N-((1-(pyridin-4-ylmethyl)pyrrolidin-3-yl)methyl)piperidine-4-carboxamide]",++ (++ ≥5 and <6)
6,"COc1ccc(-c2noc(N3CCC(C(=O)NCC(c4ccccc4)N(C)C)CC3)n2)cc1 (centres unmarked) [Compound 304, N-(2-(dimethylamino)-2-phenylethyl)-1-(3-(4-methoxyphenyl)-1,2,4-oxadiazol-5-yl)piperidine-4-carboxamide]",+ (+ >3 and <5)
7,"COc1ccc(-c2noc(N3CCC(C(=O)NCC4CCN(CC5CCCNCC5)C4)CC3)n2)cc1 (centres unmarked) [Compound 391, N-((1-(azepan-4-ylmethyl)pyrrolidin-3-yl)methyl)-1-(3-(4-methoxyphenyl)-1,2,4-oxadiazol-5-yl)piperidine-4-carboxamide]",+ (+ >3 and <5)
8,"COc1ccc(-c2noc(N3CCC(C(=O)NC4CCC(F)(F)C4)CC3)n2)cc1 (centres unmarked) [Compound 275, N-(3,3-difluorocyclopentyl)-1-(3-(4-methoxyphenyl)-1,2,4-oxadiazol-5-yl)piperidine-4-carboxamide]",+ (+ >3 and <5)
9,"O=C(C1CCN(c2nc(-c3ccncc3)no2)CC1)N1CCOCC1 [Compound 202, morpholino(1-(3-(pyridin-4-yl)-1,2,4-oxadiazol-5-yl)piperidin-4-yl)methanone]",+ (+ >3 and <5)
10,"COc1ccc(-c2noc(N3CCN(C(=O)N4CCC(C)CC4)CC3)n2)cc1 [Compound 145, (4-(3-(4-methoxyphenyl)-1,2,4-oxadiazol-5-yl)piperazin-1-yl)(4-methylpiperidin-1-yl)methanone]",+ (+ >3 and <5)
11,"COc1ccc(-c2noc(N3CCC(C(=O)NCC4CCN(Cc5nc(C)cs5)C4)CC3)n2)cc1 (centres unmarked) [Compound 384, 1-(3-(4-methoxyphenyl)-1,2,4-oxadiazol-5-yl)-N-((1-((4-methylthiazol-2-yl)methyl)pyrrolidin-3-yl)methyl)piperidine-4-carboxamide]",++ (++ ≥5 and <6)
12,"COc1ccc(-c2noc(N3CCC(C(=O)NCC4CCN(Cc5ccco5)C4)CC3)n2)cc1 (centres unmarked) [Compound 320, N-((1-(furan-2-ylmethyl)pyrrolidin-3-yl)methyl)-1-(3-(4-methoxyphenyl)-1,2,4-oxadiazol-5-yl)piperidine-4-carboxamide]",+ (+ >3 and <5)
13,"Cc1ccc(CN2CC[C@@H](CNC(=O)C3CCN(c4nc(-c5ccc(Cl)cc5)no4)CC3)C2)cc1 [Compound 167, (S)-1-(3-(4-chlorophenyl)-1,2,4-oxadiazol-5-yl)-N-((1-(4-methylbenzyl)pyrrolidin-3-yl)methyl)piperidine-4-carboxamide]",+++ (+++ ≥6)
14,"COc1ccc(-c2noc(N3CCC(C(=O)NCc4nc5ccccc5o4)CC3)n2)cc1 [Compound 420, N-(benzo[d]oxazol-2-ylmethyl)-1-(3-(4-methoxyphenyl)-1,2,4-oxadiazol-5-yl)piperidine-4-carboxamide]",+ (+ >3 and <5)
15,"COc1ccc(-c2noc(N3CCC(C(=O)NCC4CCc5ccccc5O4)CC3)n2)cc1 (centres unmarked) [Compound 278, N-(chroman-2-ylmethyl)-1-(3-(4-methoxyphenyl)-1,2,4-oxadiazol-5-yl)piperidine-4-carboxamide]",+ (+ >3 and <5)
16,"COc1ccc(-c2noc(N3CCC(C(=O)NCC4CCN(C[C@@H]5CCCNC5)C4)CC3)n2)cc1 (stereo partly drawn) [Compound 412, 1-(3-(4-methoxyphenyl)-1,2,4-oxadiazol-5-yl)-N-((1-(((R)-piperidin-3-yl)methyl)pyrrolidin-3-yl)methyl)piperidine-4-carboxamide]",− (− ≤3)
